Data: patent publication US20240425486A1, “FUSED BICYCLIC SUBSTITUTED N-(1H-INDOL-7-YL)BENZENESULFONAMIDES AND USES THEREOF” (Triana Biomedicines, Inc., priority 2021, published 2024)

Experiments:
RBM39 = RBM39 (Homo sapiens (Human), UniProt Q14498+Q66K64); assay: Western blot assay for degradation of RBM39 in HCT116 cells; type: cell-based; details: Incubation Time: 4 hours, read-out: RBM39 Degradation: IC50 (uM) [Incubation Time: 4 hours]
Description: Example 9: Western Blot Assay Procedure for Assessing Degradation of RBM39 in HCT116 Cells
HCT116 cells were used with passage numbers ranging from 13 to 25. Cells were seeded in 12-well plated at a density of 1 million cells per well in 1 mL cell culture medium containing McCoy's 5A medium (Cat. #16600082, ThermoFisher, Waltham, MA), 10% Fetal Bovine Serum (Cat. #26140, ThermoFisher, Waltham, MA) and 1% Pen-Strep (Cat. #. 15070063, ThermoFisher, Waltham, MA) and incubated overnight. The next morning, compounds were serially diluted (1:3, 9 points) in the medium separately and were prepared 2× the final assay concentration. Subsequently, 1.0 mL medium containing DMSO or the appropriate concentration of each compound was added to respective wells. The final DMSO concentration in each well was 0.1%. […] Cells were then washed once with 1 mL of ice cold Dulbecco's phosphate-buffered saline (Cat. #28374, ThermoFisher, Waltham, MA) and then lysed with 100 μl of lysis buffer containing 1×RIPA (Cat. #. 89900, ThermoFisher, Waltham, MA) and HALT protease and phosphatase inhibitor (Cat. #78442, ThermoFisher, Waltham, MA) on ice for 10 minutes with intermittent rocking. Lysates were then sonicated in a sonication bath (3 pulses of 10 sec each with 1 min incubation on ice between each pulse). Samples were then centrifuged for 20 min at 14,000 rpm for 20 min. Supernatants were then transferred to fresh microfuge tubes and stored frozen at −80° C. until use. Total protein quantitation in lysate samples was done using the BCA protein quantitation kit following the manufacturer's instructions. […] Band intensity in images was quantified using the Image Studio Lite software (Version 5.2). Signal intensity for RBM-39 specific bands were normalized using the signal intensity for […] band, and percent degradation was assessed by comparing RBM39 signal in compound-treated vs. DMSO-treated samples.

DCAF15 = DCAF15 (Homo sapiens (Human), UniProt Q66K64); assay: HTRF competition assay, binary interaction with DCAF15; type: binding; details: competition with Alexa Fluor 647 tracer
Description: Example 8: Measurement of Binary Interaction Between Compounds and DCAF15 Using Homogeneous Time Resolved Fluorescence (HTRF)
DCAF15 interactions with test compounds were monitored using HTRF competition assays (Cisbio, Bedford, MA). Test compounds were first collected in a 384-well microplate (cat. #781280, Grenier Bio-One, Monroe, NC) as 10 mM stocks in 100% dimethyl sulfoxide (DMSO). A second stock plate (cat. #781280, Grenier Bio-One, Monroe, NC) was prepared through 3-fold serial dilution in DMSO of the afore-mentioned stocks using a Mosquito HTS dispenser (mosquito@ HTS, SPT Labtech, Boston, MA). 0.2 μL of these diluted stocks were then dispensed into a 384-well Optiplate (cat. #6007290, Perkin Elmer, Waltham, MA) in duplicate wells, to assemble the assay plate. The tracer molecule containing an Alexa Fluor 647 probe was prepared in 25 mM HEPES pH 7.5, 100 mM NaCl, 0.1 mg/ml BSA, 0.005% Tween 20, 0.5 mM TCEP (dilution buffer) to 612 nM (2.04×). Separately, His-tagged DCAF15 complex was prepared at 32 nM (4×) in the dilution buffer, and mAb Anti-6His-Eu cryptate Gold (cat. #61H12KLA, Cisbio, Bedford, MA) at 4× dilution in the detection buffer (cat. #61DB9RDF, Cisbio, Bedford, MA). These two solutions were mixed and incubated for 15 min at room temperature. 9.8 μL of the tracer solution and 10 μL of the DCAF15/mAb Anti-6His-Eu cryptate Gold mixture were added sequentially to each well in the assay plate. Reaction mixtures with no DCAF15 added were included as positive controls. The final mixture was incubated for an hour at room temperature and spun down briefly before data collection at 615 nm and 666 nm using EnVision 2104 Multilabel Plate Reader (Perkin Elmer, Bedford, MA). Binding was estimated based on ratiometric analysis and titration curves were generated in GraphPad Prism (7.00, GraphPad, La Jolla, CA).

DCAF15/RBM39 = DCAF15/RBM39 (Homo sapiens (Human), UniProt Q14498+Q66K64); assay: AlphaLISA compound-induced DCAF15-RBM39 ternary complex formation; type: binding; details: His-tagged DCAF15 complex and biotin-carrying RBM39
Description: Example 7: Quantitative Evaluation of Compound-Induced Ternary Complex Formation Using Amplified Luminescent Proximity Homogeneous Assay
Compound-induced DCAF15-RBM39 ternary complex formation was monitored using AlphaLISA® assays (Perkin Elmer, Waltham, MA). Test compounds were first collected in a 384-well microplate (cat. #781280, Grenier Bio-One, Monroe, NC) as 2 mM stocks in 100% dimethyl sulfoxide (DMSO). These stocks were then serially diluted in DMSO by 3-fold into a new plate (cat. #781280, Grenier Bio-One, Monroe, NC) using a Mosquito HTS dispenser (Mosquito® HTS, SPT Labtech, Boston, MA). 0.2 μL of these diluted stocks were then dispensed into a 384-well Optiplate (cat. #6007290, Perkin Elmer, Waltham, MA) in duplicate wells, to assemble the final assay plate consisting of duplicated dose ranges. Separately, a protein mixture consisting of His-tagged DCAF15 complex and biotin-carrying RBM39, each at 408 nM (2.04×), was prepared in 50 mM HEPES, pH 7.5, 100 mM NaCl, 2 mM MgCl2, 0.1% BSA, 2 mM TCEP, 0.05% Tween-20 (dilution buffer). 9.8 μL of this protein mixture was then mixed with the compounds in the assay plate and incubated for one hour at room temperature. Reaction mixtures with no compounds added were included as negative controls, while a His-tagged and biotinylated GST protein was included to track general assay performance. Nickel Chelate AlphaLISA Acceptor beads (cat. #AL108M, Perkin Elmer, MA) and AlphaScreen Streptavidin Donor beads (cat. #6760002, Perkin Elmer, Waltham, MA) were prepared separately in the dilution buffer as 4× stocks (80 ug/ml). The beads were then added to the assay plate sequentially with incubation at room temperature for 1-2 hours after each addition. Signals were recorded using EnVision 2104 Multilabel Plate Reader (Perkin Elmer, Waltham, MA) and titration curves were generated in GraphPad Prism (7.00, GraphPad, La Jolla, CA).

Compound: O=S1(=O)Cc2ccc(S(=O)(=O)Nc3ccc(Cl)c4c(Cl)c[nH]c34)cc2C1 [Compound 17, N-(3,4-dichloro-1H-indol-7-yl)-1,3-dihydrobenzo[c]thiophene-5-sulfonamide 2,2-dioxide]
- DC50 (RBM39): ≤ 1 µM
- IC50 (DCAF15): 1000 to 10000 nM
- EC50 (DCAF15/RBM39): ≤ 1000 nM

Compound: O=C1NCCc2ccc(S(=O)(=O)Nc3ccc(Cl)c4c(Cl)c[nH]c34)cc21 [Compound 34]
- IC50 (DCAF15): 1000 to 10000 nM
- EC50 (DCAF15/RBM39): 1000 to 10000 nM

Compound: O=C1CCc2cc(S(=O)(=O)Nc3ccc(Cl)c4c(Cl)c[nH]c34)c(F)cc2N1 [Compound 35]
- IC50 (DCAF15): 1000 to 10000 nM
- EC50 (DCAF15/RBM39): 1000 to 10000 nM

Compound: CC1(C)CC(=O)Nc2ccc(S(=O)(=O)Nc3ccc(Cl)c4c(Cl)c[nH]c34)cc21 [Compound 36]
- IC50 (DCAF15): 1000 to 10000 nM
- EC50 (DCAF15/RBM39): ≤ 1000 nM

Compound: O=c1ccc2cc(S(=O)(=O)Nc3ccc(Cl)c4c(Cl)c[nH]c34)ccc2[nH]1 [Compound 37]
- IC50 (DCAF15): 1000 to 10000 nM
- EC50 (DCAF15/RBM39): ≤ 1000 nM

Compound: O=S(=O)(Nc1ccc(Cl)c2c(Cl)c[nH]c12)c1cc(Br)c2c(c1)OCCO2 [Compound 38]
- IC50 (DCAF15): 1000 to 10000 nM
- EC50 (DCAF15/RBM39): 1000 to 10000 nM

Compound: CN1Cc2cc(S(=O)(=O)Nc3ccc(Cl)c4c(Cl)c[nH]c34)ccc2OC1=O [Compound 41]
- IC50 (DCAF15): 1000 to 10000 nM
- EC50 (DCAF15/RBM39): ≤ 1000 nM

Compound: O=C1NCc2cc(S(=O)(=O)Nc3ccc(Cl)c4c(Cl)c[nH]c34)ccc2O1 [Compound 42, N-(3,4-dichloro-1H-indol-7-yl)-2-oxo-3,4-dihydro-2H-benzo[e][1,3]oxazine-6-sulfonamide]
- DC50 (RBM39): ≤ 1 µM
- IC50 (DCAF15): 1000 to 10000 nM
- EC50 (DCAF15/RBM39): ≤ 1000 nM

Compound: O=C1CSc2ccc(S(=O)(=O)Nc3ccc(Cl)c4c(Cl)c[nH]c34)cc2N1 [Compound 44, N-(3,4-dichloro-1H-indol-7-yl)-3-oxo-3,4-dihydro-2H-benzo[b][1,4]thiazine-6-sulfonamide]
- DC50 (RBM39): ≤ 1 µM
- EC50 (DCAF15/RBM39): ≤ 1000 nM

Compound: O=C1COc2cc(S(=O)(=O)Nc3ccc(Cl)c4c(Cl)c[nH]c34)cnc2N1 [Compound 45]
- IC50 (DCAF15): 10000 to 100000 nM
- EC50 (DCAF15/RBM39): ≤ 1000 nM

Compound: CC(C)(C)OC(=O)N1CCCc2cc(S(=O)(=O)Nc3ccc(Cl)c4c(Cl)c[nH]c34)ccc2C1 [Compound 47]
- IC50 (DCAF15): 1000 to 10000 nM
- EC50 (DCAF15/RBM39): ≤ 1000 nM

Compound: O=C1NCCOc2ccc(S(=O)(=O)Nc3ccc(Cl)c4c(Cl)c[nH]c34)cc21 [Compound 48]
- IC50 (DCAF15): 1000 to 10000 nM
- EC50 (DCAF15/RBM39): ≤ 1000 nM

Compound: O=C1CCSc2ccc(S(=O)(=O)Nc3ccc(Cl)c4c(Cl)c[nH]c34)cc2N1 [Compound 49]
- IC50 (DCAF15): 1000 to 10000 nM
- EC50 (DCAF15/RBM39): ≤ 1000 nM
